# Results reported in ChEMBL document CHEMBL5390236, “Biological production of epicoccamide-aglycone and its cytotoxicity” (Bioorg Med Chem Lett, 2023).
# Calls of active or inactive are those of the source. The rule behind the calls is not given here.
# Experiments:
# HeLa [1] = assay: Cytotoxicity against human HeLa cells assessed as reduction in cell population to half by MTT assay; type: functional, cell-based
# HeLa [2] = assay: Cytotoxicity against human HeLa cells assessed as reduction in cell population to midpoint between values of non-treated control and lowest population by MTT assay; type: functional, cell-based
# HeLa [3] = assay: Cytotoxicity against human HeLa cells assessed as reduction in cell population by MTT assay relative to control; type: functional
# [4] = Cytotoxicity against human WI-38 cells assessed as inhibition in cell growth at 100 uM by MTT assay relative to control; type: toxicity, cell-based
# Cryptococcus neoformans = assay: Antifungal activity against Cryptococcus neoformans assessed as reduction in fungal growth at 80 ug by paper disk assay; type: functional, organism-based; conditions: dose 80.0 µg
# [5] = Cytotoxicity against human WI-38 cells assessed as reduction in cell population to midpoint between values of non-treated control and lowest population by MTT assay; type: toxicity, cell-based
# WI-38 = assay: Cytotoxicity against human WI-38 cells assessed as inhibition in cell proliferation at 10 to 100 uM by MTT assay; type: toxicity, cell-based; conditions: wi-38, 100 µM, dose 10-100 µM
# Epicoccum nigrum [6] = assay: Antifungal activity against Epicoccum nigrum deltaepcB assessed as reduction in fungal growth at 80 ug by paper disk assay; type: functional, organism-based; conditions: dose 80.0 µg
# HeLa [7] = assay: Cytotoxicity against human HeLa cells assessed as inhibition in cell proliferation at 10 to 100 uM by MTT assay; type: functional, cell-based; conditions: dose 10-100 µM
# [8] = Cytotoxicity against human WI-38 cells assessed as reduction in cell population to half by MTT assay; type: toxicity, cell-based
# Staphylococcus aureus = assay: Antibacterial activity against Staphylococcus aureus; type: functional
# [9] = Cytotoxicity against human WI-38 cells assessed as reduction in cell population by MTT assay relative to control; type: toxicity, cell-based
# Saccharomyces cerevisiae = assay: Antifungal activity against Saccharomyces cerevisiae assessed as reduction in fungal growth at 80 ug by paper disk assay; type: functional, organism-based; conditions: dose 80.0 µg
# Escherichia coli = assay: Antibacterial activity against Escherichia coli; type: functional, organism-based
# Epicoccum nigrum [10] = assay: Antifungal activity against wild type Epicoccum nigrum assessed as reduction in fungal growth at 80 ug by paper disk assay; type: functional, organism-based; conditions: dose 80.0 µg
# HeLa [11] = assay: Cytotoxicity against human HeLa cells assessed as relative cell population at 50 uM by MTT assay relative to control; type: functional
# HeLa [12] = assay: Cytotoxicity against human HeLa cells assessed as inhibition in cell growth at 200 uM by MTT assay; type: functional, cell-based
# HeLa [13] = assay: Cytotoxicity against human HeLa cells assessed as relative cell population at 100 uM by MTT assay relative to control; type: functional
Compound,IC50 (HeLa [1]),EC50 (HeLa [2]),Emax (HeLa [3]),inhibition at 100 µM [4],Activity (Cryptococcus neoformans),EC50 [5],IC50 (HeLa [1]; read-out: IC50),Activity (WI-38),Activity (Epicoccum nigrum [6]),inhibition (HeLa [7]),IC50 [8],MIC (Staphylococcus aureus),Emax [9],Activity (Saccharomyces cerevisiae),Activity (Escherichia coli),Activity (Epicoccum nigrum [10]),Activity (HeLa [11]),inhibition (HeLa [12]),Activity (HeLa [13])
COc1cccc2c1C(=O)c1c(O)c3c(c(O)c1C2=O)C[C@@](O)(C(=O)CO)C[C@@H]3O[C@H]1C[C@H](N)[C@H](O)[C@H](C)O1 [DOXORUBICIN],5.1 µM,4.3 µM,15%,< 10%,,,,,,,,,,,,,,,
C[C@@H](CCCCCCCCCCCCCCO)C(=O)C1=C(O)N(C)[C@@H](C)C1=O,,12 µM,23%,,inactive,9.1 µM,19 µM,Toxic,inactive,Active,15 µM,1 µg/mL,20%,Active,inactive,inactive,,,
C[C@@H](CCCCCCCCC(=O)CCCCCCCCC[C@H](O)CO[C@@H]1O[C@H](CO)[C@@H](O)[C@H](O)[C@@H]1O)/C(O)=C1/C(=O)N[C@@H](Cc2ccc(O)cc2)C1=O,,,,,,,,,,,,7.2 µg/mL,,,,,,,
C[C@@H](CCCCCCCCC(=O)CCCCCCCCC[C@H](O)CO)/C(O)=C1/C(=O)N[C@@H](Cc2ccc(O)cc2)C1=O,,,,,,,,,,,,2.8 µg/mL,,,,,,,
C[C@@H](CCCCCCCCCCCCCCO[C@@H]1O[C@H](CO)[C@@H](O)[C@H](O)[C@@H]1O)C(=O)C1=C(O)N(C)[C@@H](C)C1=O,,70 µM,3.2%,,inactive,34 µM,76 µM,,inactive,,38 µM,64 µg/mL,4.6%,Active,inactive,inactive,88%,Active,14%
